The values that follow come from ChEMBL document CHEMBL1201862, “PubChem BioAssay data set” (2004).

Structures are written as SMILES.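 Test compounds were applied to cells in 96-well plates for 48 hours at 5 doses. The concentration for 50% growth inhibition is given as GI50.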 Active and inactive are the calls of the source. No stated cut-off is given here; in the data, active = GI50 up to about 1.1 µM and inactive = higher.

Among the test systems are SF-295; OVCAR-4; SF-539; SN12C; HL-60; NCI-H23; NCI-H226; 786-0; HOP-92; CAKI-1; KM-20L2; OVCAR-8; U-251; HOP-62; A498; TK-10; NCI-H522; CCRF-CEM.
Common to all, as to assay: NCI tumour cell line growth inhibition, 48 h

As for `O=C1C=C(Nc2cc(Cl)ccc2Cl)c2ccccc2C1=O`, the GI50 in the test with SF-295 was 25.1 µM (inactive); in the test on OVCAR-4, 47.6 µM (inactive); in the test with SF-539, 33.3 µM (inactive); in the test on SN12C it was 38.5 µM (inactive); with HL-60, 15.8 µM (inactive); in the test with NCI-H23, 20.7 µM (inactive). Further, the GI50 was 23.9 µM (inactive) in the test with NCI-H226; 34.8 µM (inactive) with 786-0; 20.4 µM (inactive) in the test with HOP-92; 32.2 µM (inactive) in the test on CAKI-1; > 100 µM (inactive) in the test on KM-20L2; 16 µM (inactive) with OVCAR-8. In addition, the GI50 was 25.2 µM (inactive) in the test on U-251, 26.1 µM (inactive) in the test on HOP-62 and 26.6 µM (inactive) in the test on A498.
As to `[O-][Cl+3]([O-])([O-])[O-].c1ccc(-c2[o+]c(-c3ccccc3)c(-c3ccccc3)c(-c3ccccc3)c2-c2ccccc2)cc1`, the GI50 with SF-295, with OVCAR-4, in the test on SF-539, in the test on SN12C, in the test on TK-10 and with HL-60 was > 100 µM (inactive) throughout. Further, the GI50 in the test on NCI-H23, with NCI-H226, in the test on 786-0, with HOP-92, with CAKI-1 and with NCI-H522 was > 100 µM (inactive) each time. For the same compound, the GI50 with KM-20L2, in the test on OVCAR-8, in the test on U-251, with HOP-62 and in the test on A498 was > 100 µM (inactive) in each case.
For the compound `C/C(=N\NC(N)=S)c1ccc(C)c(C)c1`, the GI50 is 48.8 µM (inactive) in the test on SF-295; 23.9 µM (inactive) with OVCAR-4; 19.9 µM (inactive) with SF-539; 49.9 µM (inactive) with SN12C; 53.5 µM (inactive) in the test with TK-10; 15.1 µM (inactive) in the test on HL-60. Moreover, the GI50 is 85.7 µM (inactive) in the test with NCI-H23; 51.2 µM (inactive) in the test with NCI-H226; 44.6 µM (inactive) with 786-0; 93.3 µM (inactive) with HOP-92; 92.5 µM (inactive) in the test with CAKI-1; 44.7 µM (inactive) with KM-20L2. The GI50 in the test with OVCAR-8 was 66.2 µM (inactive); in the test with U-251, 88.9 µM (inactive); in the test on HOP-62 it was > 100 µM (inactive); in the test on CCRF-CEM, 28.1 µM (inactive); in the test with A498, 66.7 µM (inactive).
In the case of `C=CC/N=C1\N=C(C)C(C(=O)OCC)S1` (stereo not drawn), the GI50 in the test with SF-295 was > 100 µM (inactive); in the test on OVCAR-4 it was > 100 µM (inactive); in the test with SF-539, > 100 µM (inactive); in the test on SN12C, > 100 µM (inactive); in the test on TK-10, > 100 µM (inactive); in the test on HL-60 it was 7.16 µM (inactive). Further, the GI50 in the test on NCI-H23, in the test with NCI-H226, in the test with 786-0, with HOP-92, in the test with CAKI-1 and with NCI-H522 was > 100 µM (inactive) in each case. Also, the GI50 is > 100 µM (inactive) in the test on KM-20L2; > 100 µM (inactive) in the test with OVCAR-8; > 100 µM (inactive) in the test on U-251; > 100 µM (inactive) in the test with HOP-62; 7.05 µM (inactive) in the test with CCRF-CEM; > 100 µM (inactive) in the test with A498.
With `Cc1ccc(CC(C)N)cc1` (stereo not drawn), the GI50 with SF-295, in the test on OVCAR-4, with SF-539, in the test on SN12C, with TK-10 and in the test on HL-60 was > 100 µM (inactive) throughout. Further, the GI50 in the test with NCI-H23, in the test with NCI-H226, in the test with 786-0, in the test on HOP-92, in the test on CAKI-1 and with NCI-H522 was > 100 µM (inactive) each time. In addition, the GI50 in the test on KM-20L2, with OVCAR-8, in the test on U-251, with HOP-62, with CCRF-CEM and with A498 was > 100 µM (inactive) throughout.
As to `CN(Cc1ccccc1)C1(N(C)Cc2ccccc2)CC1`, the GI50 with SF-295, in the test on OVCAR-4, with SF-539, in the test with SN12C, with TK-10 and with HL-60 was > 100 µM (inactive) in each case. Further, the GI50 with NCI-H23, in the test with NCI-H226, in the test on 786-0, with HOP-92, in the test with CAKI-1 and with NCI-H522 was > 100 µM (inactive) each time. Moreover, the GI50 with KM-20L2, in the test on OVCAR-8, in the test with U-251, in the test on HOP-62, in the test with CCRF-CEM and in the test with A498 was > 100 µM (inactive) throughout.
Regarding `NC(=S)N/N=C/c1nccc2ccccc12`, the GI50 in the test on SF-295 was 0.168 µM (active); with OVCAR-4 it was 0.54 µM (active); in the test with SF-539, 0.223 µM (active); in the test with SN12C it was 0.682 µM (active); in the test with TK-10, 4.93 µM (inactive); with HL-60, 0.393 µM (active). Moreover, the GI50 is 0.459 µM (active) in the test on NCI-H23; 0.2 µM (active) in the test with 786-0; 2.74 µM (inactive) in the test with HOP-92; 0.738 µM (active) with CAKI-1; 0.719 µM (active) in the test with NCI-H522; 0.375 µM (active) in the test with KM-20L2. Moreover, the GI50 was 0.313 µM (active) with OVCAR-8; 0.296 µM (active) in the test with U-251; 0.619 µM (active) in the test on HOP-62; 0.453 µM (active) in the test on CCRF-CEM; 0.515 µM (active) in the test with A498.
For `CN(C(=O)c1ccc([N+](=O)[O-])cc1)c1ccccc1`, the GI50 in the test on SF-295, with OVCAR-4, with SF-539, with SN12C, with NCI-H23 and in the test with NCI-H226 was > 100 µM (inactive) in each case. Also, the GI50 with 786-0, in the test on HOP-92, in the test with CAKI-1, with NCI-H522, with KM-20L2 and in the test on OVCAR-8 was > 100 µM (inactive) in each case. For the same compound, the GI50 with U-251, with HOP-62, with CCRF-CEM and in the test on A498 was > 100 µM (inactive) in each case.
For the compound `COc1cc2c(c(O)c1C)C(=O)CC(c1ccccc1)O2` (stereo not drawn), the GI50 is > 10 µM (inactive) with SF-295; > 10 µM (inactive) in the test with OVCAR-4; > 100 µM (inactive) in the test on SF-539; 37.5 µM (inactive) in the test on SN12C; 32.2 µM (inactive) in the test with TK-10; 22.4 µM (inactive) with NCI-H23. Moreover, the GI50 with NCI-H226 was 18.4 µM (inactive); with 786-0, 59.7 µM (inactive); in the test on HOP-92 it was 13.4 µM (inactive); in the test on CAKI-1 it was 94.8 µM (inactive); with NCI-H522, 50.2 µM (inactive); in the test with KM-20L2, 15.1 µM (inactive). For the same compound, the GI50 in the test with OVCAR-8 is > 100 µM (inactive); in the test on U-251, 56.4 µM (inactive); in the test on HOP-62 it was > 100 µM (inactive); in the test on CCRF-CEM, > 10 µM (inactive); in the test on A498, 64.1 µM (inactive).
